In ChEMBL document CHEMBL1130241, “Design, synthesis, and biochemical evaluation of phosphonate and phosphonamidate analogs of glutathionylspermidine as inhibitors of glutathionylspermidine synthetase/amidase from Escherichia coli” (J Med Chem, 1997):

Assays:
[1] = biological target: Glutathionylspermidine synthetase/amidase (Escherichia coli) (UniProt P0AES0); assay: Percentage of inhibition of Glutathionylspermidine synthetase at 1 mM concentration
[2] = system: Escherichia coli; assay: Inhibition of Glutathionylspermidine amidase at 1 mM compound concentration
[3] = biological target: Glutathionylspermidine synthetase/amidase (Escherichia coli) (UniProt P0AES0); assay: Percentage of inhibition of Glutathionylspermidine synthetase at 7.3 mM concentration
[4] = biological target: Glutathionylspermidine synthetase/amidase (Escherichia coli) (UniProt P0AES0); assay: Inhibition of Glutathionylspermidine synthetase
[5] = system: Escherichia coli; assay: Inhibition of glutathionylspermidine amidase at 1 mM; not detectable
[6] = biological target: T1, Glutathionylspermidine synthase (Crithidia fasciculata, UniProt P90518); assay: Inhibition of Glutathionylspermidine synthetase. Values from different publications.; set-up: species or system Escherichia coli
T1 sequence (P90518 whole entry): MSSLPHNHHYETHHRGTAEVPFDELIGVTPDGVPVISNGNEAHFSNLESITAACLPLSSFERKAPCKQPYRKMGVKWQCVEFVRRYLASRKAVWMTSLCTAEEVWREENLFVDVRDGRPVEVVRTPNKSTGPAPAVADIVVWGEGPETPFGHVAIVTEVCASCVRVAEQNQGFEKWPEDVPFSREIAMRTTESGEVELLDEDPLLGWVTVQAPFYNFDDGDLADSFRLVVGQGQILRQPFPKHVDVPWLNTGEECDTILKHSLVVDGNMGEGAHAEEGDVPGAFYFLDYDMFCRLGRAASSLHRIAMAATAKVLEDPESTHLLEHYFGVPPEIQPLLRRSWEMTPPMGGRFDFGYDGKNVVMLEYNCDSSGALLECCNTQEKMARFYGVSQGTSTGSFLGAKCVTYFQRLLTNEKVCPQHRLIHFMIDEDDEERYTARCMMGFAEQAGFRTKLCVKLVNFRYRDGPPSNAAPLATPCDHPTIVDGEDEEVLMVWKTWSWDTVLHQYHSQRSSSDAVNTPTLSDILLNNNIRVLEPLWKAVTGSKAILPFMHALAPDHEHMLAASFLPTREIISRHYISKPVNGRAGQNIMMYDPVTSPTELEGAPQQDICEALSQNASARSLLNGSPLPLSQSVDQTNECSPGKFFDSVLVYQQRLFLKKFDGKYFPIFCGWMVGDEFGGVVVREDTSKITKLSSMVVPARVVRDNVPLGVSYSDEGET

Chain of Glutathionylspermidine synthetase/amidase (Escherichia coli) (P0AES0 whole entry, looked up): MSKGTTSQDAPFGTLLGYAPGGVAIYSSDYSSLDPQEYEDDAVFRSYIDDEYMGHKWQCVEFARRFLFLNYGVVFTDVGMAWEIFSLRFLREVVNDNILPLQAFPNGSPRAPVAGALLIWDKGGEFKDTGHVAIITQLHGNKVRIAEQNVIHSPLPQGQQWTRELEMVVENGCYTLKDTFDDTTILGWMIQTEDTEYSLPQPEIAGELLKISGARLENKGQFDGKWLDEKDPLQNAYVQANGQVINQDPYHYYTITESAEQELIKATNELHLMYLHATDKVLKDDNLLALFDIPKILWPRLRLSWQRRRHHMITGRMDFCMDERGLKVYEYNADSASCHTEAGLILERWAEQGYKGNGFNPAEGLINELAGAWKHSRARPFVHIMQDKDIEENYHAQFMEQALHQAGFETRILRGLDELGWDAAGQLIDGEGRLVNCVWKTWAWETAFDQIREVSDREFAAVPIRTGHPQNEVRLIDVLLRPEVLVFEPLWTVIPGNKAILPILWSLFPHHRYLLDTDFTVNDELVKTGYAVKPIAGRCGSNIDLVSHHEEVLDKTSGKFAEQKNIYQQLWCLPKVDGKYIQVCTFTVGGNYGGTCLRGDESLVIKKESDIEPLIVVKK

| Structure (SMILES) | inhibition [1] [%] | inhibition [2] [%] | inhibition [3] [%] | Ki [4] [µM] | inhibition [5] | Ki [6] [µM] |
| --- | --- | --- | --- | --- | --- | --- |
| CCCCNP(=O)(CNC(=O)[C@H](C)NC(=O)CC[C@H](N)C(=O)O)OC (some centres not stated) | 5.7 | 1.8 | 31.3 | – | – | – |
| C[C@H](NC(=O)CC[C@H](N)C(=O)O)C(=O)NCP(=O)(O)OCCCNCCCCN | – | – | – | 6 | not detectable | – |
| COP(=O)(CNC(=O)[C@H](C)NC(=O)CC[C@H](N)C(=O)O)NCCCNCCCCN (some centres not stated) | – | 3.4 | – | – | – | 24 |
